These results are taken from patent US6878522B2, “Methods for the identification of compounds useful for the treatment of disease states mediated by prostaglandin D2” (priority 2000, dated 2005).

pEC50: −log10 of the molar value. Where only a bound is given, the exact number is not on record here.

Common to all, as to type: cell-based
Assay [1] deals with human whole blood eosinophil. The assay is described as follows: Human whole blood eosinophil actin-polymerization response. The note with it: read-out: Actin-polymer EC50. The source says:
Yet another secondary screening assay is an actin polymerization assay. Another biological effect of the interaction of PGD2 with CRTH2 is actin polymerization. Thus, an actin polymerization assay may be used as a secondary screen to characterize the activity of a compound isolated in the primary screening assays of the invention. In one embodiment, actin polymerization may be assayed using an actin-specific fluorescent label, nitrobenzoxadiazole (NBD)-phallacidin, which binds polymerized actin fiber. In a specific embodiment, the assay may be performed as follows: cell preparations are resuspended at 5-10×10^6 cells/ml in RPMI 1640 plus 10 mM HEPES, 100/10 Pen/Strep, and 0.5% FCS. The cell suspension is aliquoted (100 μL per well) into a 96-well U-bottom polypropylene microtiter plate. 50 ul of the appropriate stimulus (PGD2 or test compound, or both PGD2 and test compound) is added using an 8-channel pipette followed exactly 25 seconds later by 50 ul of a stopping solution which contains lysophosphotidylcholine (0.5 mg/ml), Hank's balanced salt solution (100 ul 10×), 16% formaldehyde (800 ul), and 6.6 uM NBD-phallacidin in MEOH (100 ul). The plate is allowed to sit at room temperature for 15 minutes. The plate is then centrifuged at 1000 rpm for 5 minutes, the supernatants flicked off and the cell pellets resuspended in 250 ul PBS plus 2%FCS and 0.2% sodium azide. Each sample is then read on a FACS Caliber instrument. Cells are gated using the forward scatter/side scatter data in the lymphocyte area. Responses are measured by the change in median FL-1 fluorescence between vehicle treated cells and stimulus treated cells. Test compounds can be assayed in the presence and absence of PGD2, and compared to a sample containing PGD2 alone. A compound that reduces PGD2-induced actin polymerization of CRTH2 cells is identified as a candidated CRTH2 antagonist.

Assay [2] deals with isolated human eosinophils. The assay can be described thus: Chemotaxis of isolated human eosinophils. How it is done: In a specific example of this method, a competitive assay is performed to test compounds for their ability to interrupt the attraction of CRTH2 cells to PGD2. In this method, test compounds are diluted into the bottom wells of the Boyden chemotaxis chamber. A constant amount of PGD2 is also added to this dilution series, at a concentration known to have a chemotactic effect on CRTH2 cells. As a control, at least one aliquot contains only PGD2. Cells expressing CRTH2 are resuspended at 3-3.5×10^6 cells/ml in RPMI 1640 supplemented with 10 mM HEPES and 1 mg/ml bovine serum albumin (Sigma, St. Louis, Mo.), and placed into the upper wells of the chamber. The chambers are incubated for 90-120 minutes at 37° C. in a humidified CO2 incubator. After the incubation period, the number of migrating cells on the lower surface of the membrane filter is counted using light microscopy. The contribution of the test compound to the chemotactic activity of PGD2 is measured by comparing the chemotactic activity of the aliquots containing only PGD2 with the activity of aliquots containing test compound and PGD2. If addition of the test compound to the PGD2 solution results in a […] in the number of cells detected on the lower surface of the membrane relative to the number of cells detected using a solution containing only PGD2, then there is identified an antagonist of PGD2 induction of chemotactic activity of cells expressing CRTH2. In contrast, if the addition of the test compound to the PGD2 solution results in a […] in the number of cells detected on the lower surface of the membrane (relative to the number of cells detected using a solution containing only PGD2), then an […] of PGD2 induction of chemotactic activity of cells expressing CRTH2 is identified.
The chemotactic response of human T lymphocytes to PGD2, murine MDC and murine mSDF was also assayed. Chemotaxis was determined using a 48-well Boyden chamber (Neuroprobe, Cabin John, Md.), and 3.0 μm polycarbonate filters. Cells were resuspended (3-3.5×10^6 cells/ml) in RPMI 1640 supplemented with 10 mM HEPES and 1 mg/ml bovine serum albumin (Sigma, St. Louis, Mo.), and placed into the upper wells of the chamber. The compound to be tested was placed in the lower wells. The chambers were incubated for 90-120 minutes at 37° C. in a humidified CO2 incubator. At the end of the incubation period, the number of migrating cells on the filter (expressed per high power field) were enumerated microscopically. […] In FIG. 4, the chemotactic response of human basophils to PGD2 and C5a is shown.

The subject of assay [3] is isolated human eosinophils. The assay can be described thus: [Ca2+]i mobilization in isolated human eosinophils. An excerpt: Calcium mobilization can be detected and measured by flow cytometry, and by labeling with fluorescent dyes that are trapped intracellularly. […] The ratio of fluorescence produced by the calcium-bound dye to that produce by the unbound dye is used to estimate the intracellular calcium concentration. In one embodiment, for example, the following method can be used. Cells that express CRTH2 are collected, and resuspended in fresh media at ˜2×10^5/ml the day before performing the calcium flux assay. Cells are incubated at 37° C. for not longer than 20-30 minutes, and then spun down and resuspended in 50 ml fresh PTI buffer (Hank's Buffer, pH 7.2-7.4; 10 mM Hepes; 1.6 mM CaCl2) containing Indo-1 AM, pre-warmed to 37° C., at a concentration of 10 million per ml. Cells are excited, and fluorescence is measured using a fluorimeter (Photon Technology Corporation, International). After the readout has stabilized, the time axis is reset, and PGD2 is added at a specific time point (e.g., 20 seconds). After response, the following reagents are added to the cuvette, to release and chelate total calcium, in the following order: 20 μl of 18% Triton X-100, 20 μl of 3M Tris, pH 8.5, and 20 μl of 0.5 M EGTA, pH 8.5. The experiment is repeated in the presence and the absence of a test compound. […] Therefore, in the presence of an […] test compound, the EC50 would be expected to be higher than this value, whereas in the presence of an agonist test compound, the EC50 would be expected to decrease.

In general, pEC50 refers to −log10 of the EC50, conventionally taken in molar units. Take `O=C(O)CCCCCCC1C(=O)NC(=O)N1CCC(O)C1CCCCC1` (stereo not drawn) [BW-245C]: the pEC50 in assay [1], in assay [2] and in assay [3] was under 6.00 each time.

On to `CCCCC[C@H](O)/C=C/[C@H]1C(=O)C[C@H](O)[C@@H]1C/C=C\CCCC(=O)O` [PGD2, prostaglandin D2], for which the results for the negative-log EC50 (pEC50) in assay [1], in assay [2] and in assay [3] were 8.40, 8.52 and 7.52, respectively.

Take `CCCCC[C@H](O)/C=C/[C@H]1[C@H](O)CC(=O)[C@@H]1C/C=C\CCCC(=O)O` [PGE2]: the pEC50 is under 3.52 in assay [1], under 7.00 in assay [2] and under 6.00 in assay [3].

`CCCCC[C@H](O)/C=C/[C@@H]1[C@@H](C/C=C\CCCC(=O)O)[C@@H](O)C[C@H]1O` [PGF2α]: the pEC50 in assay [1] was 5.72; in assay [2], under 7.00; in assay [3], under 6.00.
